Experimental data published in patent US9000039B2, “Sn-1(3) monoacylglycerides and lipid absorption” (Nestec S.A., priority 2011, dated 2015).

Test: lipid maldigestion or malabsorption animal model (Orlistat): EPA incorporation in red blood cell lipids
Assay type: in vivo, rats
Experimental: The inventors tested their concept in a lipid maldigestion/malabsorption animal model. The malabsorption condition was obtained using Orlistat®, a well known pancreatic and gastric lipases inhibitor. Animals were fed with long-chain polyunsaturated fatty acid (LC-PUFA) supplements containing mainly eicosapentaenoic (EPA) acid. Fish oil was used as a source of triacylglycerols and different EPA glycerides, for example those of FIG. 1, were evaluated. At different time intervals the fatty acid profile of red blood cell and plasma lipids was assessed. At the end of the experiment, fatty acid profiles of different tissues were determined. […] However, if LC-PUFA are provided as sn-1(3) MAGs the incorporation in tissue is not altered in conditions of lipid malabsorption/maldigestion.
Treatments: Control rats fed fish oil with or without Orlistat and rats fed with MAGs described in FIG. 1. Values are means±SEM (n=6).
The concept was tested in a lipid maldigestion or malabsorption animal model. The maldigestion or malabsorption condition was obtained using Orlistat, a well known pancreatic and gastric lipases inhibitor. Animals were fed during 21 days with long-chain polyunsaturated fatty acid (LC-PUFAs) supplements containing mainly eicosapentaenoic (EPA) acid. Fish oil was used as a source of triacylglycerols and the different EPA glycerides provided in FIG. 1 and purchased from Cognis GmbH, Germany, were evaluated. Orlistat was given at a level sufficient to decrease lipid absorption by 40%. A group receiving fish oil without Orlistat was used as a positive control. At different time intervals (D-3, D7, D14 and D21), fatty acid profile of red blood cell and plasma lipids were performed. At the end of the experiment, fatty acid profiles of different tissues were determined.
The main objective was to follow the level of EPA in red blood cell and plasma lipids. The main comparison evaluated was the difference in EPA level between groups receiving EPA containing MAGs (FIG. 1) in combination with Orlistat and the positive control group […].

CC/C=C\C/C=C\C/C=C\C/C=C\C/C=C\CCCC(=O)OCC(O)CO (stereo not shown) [sn-1(3) monoeicosapentaenoylglycerol, sn-1(3)-monoeicosapentaenoylglycerol]
level of EPA incorporated in red blood cells, compared with the fish oil group (without Orlistat) (rats fed MAGs in combination with Orlistat, day 7, FIG. 2): even higher than the fish oil group | level of EPA incorporated in red blood cells, compared with the fish oil+Orlistat group (rats fed MAGs in combination with Orlistat, day 7, all P values lower than 0.05, FIG. 2): statistically higher | fatty acid absorption compared with fish oil under normal conditions (under maldigestion/malabsorption conditions, FIG. 2): better absorbed

CCCCCCCCCCC[C@@H](C[C@@H]1OC(=O)[C@H]1CCCCCC)OC(=O)[C@H](CC(C)C)NC=O [Orlistat, reference compound]
effect on EPA incorporation in red blood cells (group receiving fish oil in combination or not with Orlistat, validates the model): decrease EPA incorporation in red blood cells
